Patent US20140357841A1, “Method for stabilizing polypeptide into alpha helix” (Peking University Shenzhen Graduate School, priority 2013, published 2014)
Marks after values point to notes of the source that are not given here.

Legend:
[1] = circular dichroism (CD) detection of alpha helix content in PBS; assay type: physicochemical; set-up: [θ]215 / [θ]207 / [θ]190: unit not given here; conditions: for [θ]190 / [θ]207 / [θ]215 / [θ]215/[θ]207: CD; for [θ]190 / [θ]207 / [θ]215 / [θ]215/[θ]207 / relative content of alpha helix: PBS pH = 7.4, 22° C., 10 mM; for alpha helix stabilization / content by CD (in words): PBS 10 mM; for relative content of alpha helix: [θ]215(x)/[θ]215(ASOB), ASOB is the standard
Procedure: The obtained compound 4 is dissolved into of PBS (PH=7.4, 10 mM) for obtaining a CD diagram.
fH=([θ]obs215-[θ]C)/([θ]∞215-[θ]C);
wherein T=22° C.; κ=4.0; Np=6 (for pentapeptide); ι=0.1 (cm); C is a molarity M of the samples of the two isomers.

[2] = CD comparison in PBS and 50% trifluoroethanol (TFE) solution; assay type: physicochemical; conditions: CD in PBS versus 50% TFE solution
Excerpt: FIG. 2 is a CD diagram of the Ac-cyclo(1,5)-monoS5AAAC-NH2 sulfoxide B in the PBS and a 50% trifluoroethanol (TFE) solution according to the Example 1 of the present invention.

| Substance | [θ]190 [1] | [θ]207 [1] | [θ]215 [1] | [θ]215/[θ]207 [1] | alpha helix stabilization / content by CD (in words) [1] | relative content of alpha helix [1] | effect of TFE buffer solution on the alpha helix [2] | improvement of the effects of stabilizing the alpha helix compared to conventional amido bond stabilization ([1]; versus control of Table 3, identical intermediate sequences) |
| --- | --- | --- | --- | --- | --- | --- | --- | --- |
| Ac-cyclo(1,5)-monoS5AGAC-NH2 sulfoxide B [GSOB] | 9121 | −7777 | −7920 | 1.02 | identically high contents of the alpha helixes | 0.51 |  |  |
| Ac-(cyclo2,6)-R[KAAAD]-NH2 [control, reference compound] | 39352 | −13684 | −13537 | 0.99 |  | 0.86** |  |  |
| Ac-cyclo(1,5)-monoS5AIAC-NH2 sulfoxide B [ISOB] | 26306 | −15556 | −13558 | 0.87 | identically high contents of the alpha helixes | 0.87 |  |  |
| Ac-cyclo(1,5)-monoS6AAAC-NH2 sulfoxide B |  |  |  |  | has effects of stabilizing alpha helix |  |  |  |
| Ac-cyclo(1,5)-monoS5AAAC-NH2 sulfoxide B [ASOB] | 25987 | −16054 | −15666 | 0.98 | has stable alpha helixes | 1.00 | no improvements |  |
| Ac-cyclo(1,5)-monoS5AAAC-NH2 sulfoxide A [ASOA] | −14594 | −4667 | 672 | −0.14 |  | −0.04 |  | 14% |
